IC50 data for 17 molecules are collected here from patent publication US20160176867A1, “MODIFIED BET-PROTEIN-INHIBITING DIHYDROQUINOXALINONES AND DIHYDROPYRIDOPYRAZINONES” (BAYER PHARMA AKTIENGESELLSCHAFT, priority 2013, published 2016).

Test [1] deals with T1, BRD4 bromo domain 1 [BRD4(1)] (Homo sapiens, UniProt O60885).
T1 construct: N-terminally His6-tagged BRD4(1) (amino acids 67-152); made in house; host or cells: E. coli
Description: BRD4/acetylated peptide H4 binding assay (TR-FRET), BRD4 bromo domain 1. The conditions noted are these: inhibition of BRD4(1)/Ac-H4 peptide interaction. The method in brief:
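TR-FRET (665/620 nm ratio) measuring displacement of biotinylated tetra-acetylated H4 peptide from His6-BRD4(1) (aa 67-152, E. coli; typically 10 nM) at pH 7.5. Compound (11 concentrations, 0.1 nM–20 μM, duplicates) was preincubated 10 min at 22°C, then 1 h at 22°C and ≥3 h at 4°C; IC50 from 4-parameter fit normalized to DMSO and no-BRD4 controls.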

Test [2] has as its target T2, BRD4 bromo domain 2 [BRD4(2)] (Homo sapiens, UniProt O60885).
T2 construct: N-terminally His6-tagged BRD4(2) (amino acids 357-445); made in house; host or cells: E. coli
Briefly: BRD4/acetylated peptide H4 binding assay (TR-FRET), BRD4 bromo domain 2. The conditions noted are these: inhibition of BRD4(2)/Ac-H4 peptide interaction. The method in brief:
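IC50 comes from a 4-parameter fit over 0.1 nM–20 μM in duplicate, normalised to DMSO and no-protein controls. TR-FRET (Eu-streptavidin/anti-His-XL665) tracks His-tagged BRD4(2) 357-445 at 100 nM binding Ac-H4 peptide in HEPES pH 7.5 buffer. Incubation was 1 h at 22 °C, then at 4 °C ≥3 h up to overnight.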

Regarding `COc1ccc(Nc2ccc3c(n2)N(C2CCOCC2)[C@H](C)C(=O)N3C)cc1C(=O)N[C@H]1CC[C@H](N2CCN(CC3CC3)CC2)CC1` [Example 82, N-{trans-4-[4-(cyclo-propylmethyl)piperazin-1-yl]cyclohexyl}-5-{[(3R)-1,3-dimethyl-2-oxo-4-(tetrahydro-2H-pyran-4-yl)-1,2,3,4-tetrahydropyrido[2,3-b]pyrazin-6-yl]amino}-2-methoxybenzamide], the IC50 in test [1] worked out at 0.218 µM; in test [2], 0.337 µM.
Taken in the same sequence, the figures for `COc1ccc(Nc2ccc3c(n2)N(C2CCOCC2)[C@H](C)C(=O)N3C)cc1C(=O)N1CCN(C)CC1` [Example 83, (3R)-6-({4-methoxy-3-[(4-methylpiperazin-1-yl)carbonyl]phenyl}-amino)-1,3-dimethyl-4-(tetrahydro-2H-pyran-4-yl)-3,4-dihydropyrido[2,3-b]pyrazin-2(1H)-one] were 0.218 µM and 0.227 µM.
Take `C[C@@H]1C(=O)N(C)c2ccc(Nc3cccc(C(=O)NCCN4CCN(C)CC4)c3)nc2N1C1CCCCC1` [Example 84, 3-{[(3R)-4-cyclohexyl-1,3-dimethyl-2-oxo-1,2,3,4-tetrahydropyrido[2,3-b]pyrazin-6-yl]amino}-N-[2-(4-methlpiperazin-1-yl)ethyl]benzamide]: the IC50 in test [1] came out at 0.268 µM; in test [2], 0.155 µM.
Take `CC(C)N1CCN(C(=O)c2cccc(Nc3ccc4c(n3)N(C3CCCCC3)[C@H](C)C(=O)N4C)c2)CC1` [Example 85]: the IC50 in test [1] worked out at 0.314 µM; in test [2] it was 0.189 µM.
Take `C[C@@H]1C(=O)N(C)c2ccc(Nc3cccc(C(=O)NC4CCC(O)CC4)c3)nc2N1C1CCCCC1` (stereo partly drawn) [Example 86, 3-{[(3R)-4-cyclohexyl-1,3-dimethyl-2-oxo-1,2,3,4-tetrahydropyrido[2,3-b]pyrazin-6-yl]amino}-N-(4-hydroxycyclohexyl)-benzamide]: the IC50 in test [1] was determined as 0.322 µM; in test [2], 0.127 µM.
Regarding `COc1ccc(Nc2ccc3c(n2)N(C2CCOCC2)[C@H](C)C(=O)N3C)cc1C(=O)NC1CCC(N2CCC(F)(F)CC2)CC1` (stereo partly shown) [Example 89], the IC50 in test [1] came to 0.399 µM; in test [2] it was 0.497 µM.
Regarding `COc1ccc(C(=O)N[C@H]2CC[C@@H](N3CCN(C4CC4)CC3)CC2)cc1Nc1ccc2c(n1)N(C1CCOCC1)[C@H](C)C(=O)N2C` [Example 90, N-[cis-4-(4-cyclopropylpiperazin-1-yl)cyclohexyl]-3-{[(3R)-1,3-dimethyl-2-oxo-4-(tetrahydro-2H-pyran-4-yl)-1,2,3,4-tetrahydropyrido[2,3-b]pyrazin-6-yl]amino}-4-methoxybenzamide], the IC50 in test [1] came out at 0.43 µM; in test [2], 0.332 µM.
Regarding `COc1c(Nc2ccc3c(n2)N(C2CCOCC2)[C@H](C)C(=O)N3C)cccc1C(=O)N[C@H]1CC[C@H](N2CCN(CC3CC3)CC2)CC1` [Example 91, N-{trans-4-[4-(cyclo-propylmethyl)piperazin-1-yl]cyclohexyl}-3-{[(3R)-1,3-dimethyl-2-oxo-4-(tetrahydro-2H-pyran-4-yl)-1,2,3,4-tetrahydropyrido[2,3-b]pyrazin-6-yl]amino}-2-methoxybenzamide], the IC50 in test [1] is 0.439 µM; in test [2], 0.325 µM.
Turning to `COc1c(Nc2ccc3c(n2)N(C2CCOCC2)[C@H](C)C(=O)N3C)cccc1C(=O)N1CCN(C)CC1` [Example 92, (3R)-6-({2-methoxy-3-[(4-methylpiperazin-1-yl)carbonyl]phenyl}-amino)-1,3-dimethyl-4-(tetrahydro-2H-pyran-4-yl)-3,4-dihydropyrido[2,3-b]pyrazin-2(1H)-one], the IC50 in test [1] came to 0.452 µM; in test [2], 0.579 µM.
With `CC(C)N1c2nc(Nc3cccc(C(=O)NC4CCN(C)CC4)c3)ccc2N(C)C(=O)[C@H]1C` [Example 94, 3-{[(3R)-4-isopropyl-1,3-dimethyl-2-oxo-1,2,3,4-tetrahydropyrido[2,3-b]pyrazin-6-yl]amino}-N-(1-methylpiperidin-4-yl)benzamide], the IC50 in test [1] turned out to be 0.467 µM; in test [2] it was 0.115 µM.
Taken in the same sequence, the figures for `C[C@@H]1C(=O)N(C)c2ccc(Nc3cccc(C(=O)NC4CCN(C)CC4)c3)nc2N1C1CCCCC1` [Example 95, 3-{[(3R)-4-cyclohexyl-1,3-dimethyl-2-oxo-1,2,3,4-tetrahydropyrido[2,3-b]pyrazin-6-yl]amino}-N-(1-methylpiperidin-4-yl)benzamide] were 0.475 µM and 0.277 µM.
In the case of `C[C@@H]1C(=O)N(C)c2ccc(Nc3cccc(C(=O)NC4CCN(C)CC4)c3)nc2N1C1CCC(C)(C)CC1` [Example 96, 3-{[(3R)-4-(4,4-dimethylcyclohexyl)-1,3-dimethyl-2-oxo-1,2,3,4-tetrahydropyrido[2,3-b]pyrazin-6-yl]amino}-N-(1-methylpiperidin-4-yl)benzamide], the values for the IC50 in test [1] and in test [2] were 0.501 µM and 0.573 µM, respectively.
As for `CC(C)N1c2nc(Nc3cccc(C(=O)NCCN(C)C)c3)ccc2N(C)C(=O)[C@H]1C` [Example 97, N-[2-(dimethylamino)ethyl]-3-{[(3R)-4-isopropyl-1,3-dimethyl-2-oxo-1,2,3,4-tetrahydropyrido[2,3-b]pyrazin-6-yl]amino}benzamide], the values for the IC50 in test [1] and in test [2] were 0.503 µM and 0.179 µM, respectively.
As to `C[C@@H]1C(=O)N(C)c2ccc(Nc3cccc(C(=O)N[C@H]4CC[C@H](N5CCN(CC6CC6)CC5)CC4)c3)nc2N1C1CCCCC1` [Example 99, 3-{[(3R)-4-cyclohexyl-1,3-dimethyl-2-oxo-1,2,3,4-tetrahydropyrido[2,3-b]pyrazin-6-yl]amino}-N-{trans-4-[4-(cyclopropyl-methyl)piperazin-1-yl]cyclohexyl}benzamide], the results for the IC50 in test [1] and in test [2] were 0.551 µM and 0.274 µM, respectively.
The like results for `C[C@@H]1C(=O)N(C)c2ccc(Nc3cccc(C(=O)NC4CCN(C)CC4)c3)nc2N1C1CCN(C(=O)OC(C)(C)C)CC1` [Example 100, tert-butyl 4-[(3R)-1,3-dimethyl-6-({3-[(1-methylpiperidin-4-yl)carbamoyl]phenyl}amino)-2-oxo-2,3-dihydropyrido[2,3-b]pyrazin-4(1H)-yl]piperidine-1-carboxylate] were, in that order, 0.555 µM and 0.462 µM.
Taken in the same sequence, the figures for `COCCN1c2nc(Nc3cccc(C(=O)N[C@H]4CC[C@H](N5CCN(CC6CC6)CC5)CC4)c3)ccc2N(C)C(=O)[C@H]1C` [Example 101, N-{trans-4-[4-(cyclopropylmethyl)piperazin-1-yl]cyclohexyl}-3-{[(3R)-4-(2-methoxyethyl)-1,3-dimethyl-2-oxo-1,2,3,4-tetrahydropyrido-[2,3-b]pyrazin-6-yl]amino}benzamide] were 0.617 µM and 0.195 µM.
For the molecule `C[C@@H]1C(=O)N(C)c2ccc(Nc3cccc(C(=O)N[C@H]4CC[C@H](N5CCN(CC6CC6)CC5)CC4)c3)nc2N1C1CCN(C(=O)OC(C)(C)C)CC1` [Example 102, tert-butyl 4-[(3R)-6-{[3-({trans-4-[4-(cyclopropl-methyl)piperazin-1-yl]cyclohexyl}carbamoyl)phenyl]amino}-1,3-dimethyl-2-oxo-2,3-dihydropyrido[2,3-b]pyrazin-4(1H)-yl]piperidine-1-carboxylate], the IC50 in test [1] was 0.788 µM; in test [2], 0.687 µM.
